Experimental data as given in publication PMC8885659, “Asymmetric, amphiphilic RGD conjugated phthalocyanine for targeted photodynamic therapy of triple negative breast cancer” (Signal Transduction and Targeted Therapy, 2022).
Values belong to the compound of their own block, whether it stands above or below them.

What was measured:
4T1 tumor = experiment: In vivo fluorescence imaging of tumor targeting; parameters: species or system Balb/c mice
Description: (§1) Balb/c female mice aged 6 to 8 weeks were purchased from Beijing Weitong Lihua Laboratory Animal Technology. All animal experiments were performed under protocols approved by the Institutional Animal Care and Use Committee (IACUC) of Peking University. In situ breast cancer tumor models were established by injecting 2 * 10^7 4T1-luci tumor cells under the fourth pair of mammary glands in mice. Treatment was initiated approximately 6 days after inoculation when the tumor volume grew to approximately 100 mm^3.
For in vivo fluorescence imaging, RSP or SC dissolved in physiological saline (containing 1% CEL) was injected intravenously at a dose of 2 mg/kg into tumor-bearing mice (both in situ and subcutaneous models). Then IVIS Spectrum In Vivo Imaging System (PerkinElmer) was utilized to collect the fluorescence signals of RSP (660 nm/710 nm) in subcutaneous models at different times after the injection. The small animal fluorescence imaging system was used for in situ tumor-bearing mice imaging, taking pictures, and recording. The excitation wavelength was 660 nm, and the fluorescence signal was collected with a 700 nm filter. Then, the FOBI software was used to process the data to analyze the enrichment of phthalocyanines in the tumors of the mice after different injection times. The mice after 24 h fluorescence imaging were sacrificed, and the hearts, livers, spleens, lungs, kidneys, and tumors were collected for analysis of fluorescence semiquantitative biodistribution.

4T1 tumor model = experiment: In vivo photodynamic activity; parameters: species or system Balb/c mice; conditions: for Tumor volume without light versus PBS and Light groups: no laser
Description: as §1
(§2) PDT treatment was performed on the 7th day when the 4T1 tumor model was established in mice, and the average initial tumor volume was 100 mm^3. The test groups were as follows: Group 1: PBS; Group 2: Light; Group 3: SC; Group 4: RSP; Group 5: SC + Light, Group 6: RSP + Light. First, 200 μl of RSP (2 mg/kg), SC (2 mg/kg), and PBS were injected intravenously. 4 h after the injection, the tumor area was irradiated with 671 nm laser (0.1 W/cm^2) for 6 min with a total laser intensity of 36 J/cm^2 and laser treatment was performed on groups 2, 5, and 6. After PDT treatment, the tumor size was measured every day using electronic vernier calipers until 12 days. The maximum width (X) and length (Y) of the tumor were measured, and the following formula was used to calculate the tumor volume: V = (X^2Y)/2. From the first day of treatment, the weight change of each group of mice was recorded until the end of the treatment. Mice in each group were selected randomly, and excised tumors for pathological analysis. In order to investigate the biological safety of this PDT method, after the treatment, the main organs (heart, liver, spleen, lung, kidney) of each group of differently treated mice were dissected, and H&E section staining was performed to evaluate their Pathological changes.

[1] = Biological safety in the PDT study (body weight, H&E of main organs); type: in vivo, Balb/c mice; conditions: for Mouse body weight change: all treatment groups with or without light, 2 mg/kg i.v., n = 5
Description: as §2

4T1 cells [2] = experiment: Cytotoxicity assay (CCK8), phototoxicity and dark toxicity; type: cell-based, murine; conditions: for Dark toxicity: cell viability without light: no light, CCK8, n = 5
Description: 4T1 cells were seeded in a 96-well plate at a density of 10,000 cells/well, and each well was cultured overnight with 200 μL of DMEM medium containing 10% FBS. On the second day, the original medium was discarded and replaced with DMEM medium containing different concentrations of SC or RSP (containing 0.05% CEL). After 4 h of incubation, the cells were incubated with fresh medium and irradiated with a xenon lamp. Then 10 μL of CCK8 was added to each well, and the incubation continued for 1 h. After the incubation, the absorbance value at 450 nm was measured with enzyme labels (Synergy HT, BioTek, USA). At the same time, a blank control was set to determine cell viability. The dark toxicity test method was similar, except that no light was applied to the cells.

[3] = Photostability under laser irradiation; type: physicochemical; conditions: 4 mins of laser irradiation, 225 mW/cm^2, UV-vis absorption
Description: In order to better simulate the situation of photosensitive molecules in practical applications, the singlet oxygen yield of RSP in physiological saline containing 1% CEL was measured (Fig. 2c). The slope of RSP and SC was 0.06481 and 0.07165 respectively (Supplementary Fig. 6). […] We further determined the photostability of RSP. […] The axial modification of RSP helped to improve the stability of the phthalocyanine parent ring when singlet oxygen was generated, so that it was less prone to degrade.

4T1 cells [4] = experiment: Apoptosis/necrosis by flow cytometry after TPDT; type: cell-based, murine; conditions: 500 nM, 4 h incubation, with light
Description: The apoptosis rate and necrosis rate of the cells were detected on the flow cytometer according to the operating procedure of the apoptosis detection kit. 4T1 cells were seeded in a six-well plate at a density of 5 * 10^5 cells/well overnight. On the second day, the medium was changed to DMEM medium containing 500 nM RSP/SC and 1% CEL, and the cells were incubated for 4 h. Then the medium was replaced with fresh DMEM. The cells were applied light/ no light, and then digested.

[5] = Blood circulation dynamics and organ distribution; type: in vivo, Balb/c mice
Description: The ideal targeted photosensitizer should be able to quickly accumulate at the tumor site and metabolize from normal organs after injection. […] After 24 h, 48 h, and 120 h of RSP injection, the major organs of the mice were dissected and their fluorescence was quantified.
In order to investigate the blood clearance rate of RSP, healthy male Balb/c mice were selected as experimental subjects, and blood was collected from the orbit to detect the drug concentration in the body at different time points. Fluorescence labeled Organism Bioimaging Instrument (FOBI, South Korea) was used to measure the relative concentration of phthalocyanine in mouse plasma. Mice were injected with RSP through the tail vein at a dose of 2 mg/kg. At different time intervals, blood samples were collected from the orbits of mice with capillary tubes coated with heparin, placed on ice, and centrifugated to separate blood cells (3000 g, 10 min). The resulting plasma samples were analyzed for phthalocyanine concentration.

[6] = Solubility and aggregation state (absorption spectra); type: physicochemical
Source text: Therefore, we dissolved RSP in physiological saline containing 1% CEL, DMEM medium containing 0.05% CEL, and DMF (as a control) to measure its absorption and fluorescence spectrum. […] RSP had the characteristics of not being aggregated in physiological saline and cell culture media, which provides a basis for further investigation of its phototoxicity.

4T1 cells [7] = experiment: Subcellular co-localization with lysosomes (confocal); type: cell-based, murine; conditions: 1 μM, 4 h incubation, Lysotracker, n = 3
Description: Subcellular colocalization pictures were taken under a laser confocal microscope (Nikon A1R high-speed confocal laser microscope, Nikon Corporation, Japan). 4T1 cells were cultured in 35 mm cell culture dishes at a density of 20,000 cells/dish, and cultured overnight. After 24 h, the medium was replaced with DMEM medium (containing 0.05% CEL) containing 1 μM RSP or SC. After 4 h of incubation, the plates were washed with PBS and then stained with DMEM medium containing Lysotracker for 30 min and washed again with PBS. Then fixed and counterstained with DAPI. The light was always avoided during the entire operation. The dynamic change of fluorescence on any straight line passing through the whole cell was analyzed by Image J. The result was plot to qualitatively analyze the co-localization situation of lysosome and phthalocyanine. In order to more completely reflect the co-localization of lysosomes and phthalocyanines, the Pearson co-localization coefficient was analyzed on the fluorescence fields of cells obtained from three photographs, and the difference in lysosomal localization of RSP and SC in the cells was quantitatively analyzed.

[8] = Singlet oxygen yield detection with DPBF; type: physicochemical; conditions: physiological saline containing 1% CEL; for Slope of DPBF bleaching (singlet oxygen yield): laser 610 nm, 225 mW/cm^2, DPBF absorbance at 414 nm
Source text: Generation of singlet oxygen was detected chemically using the disodium salt of 1,3-diphenylisobenzofuran (DPBF) as a singlet oxygen sensor. DPBF is bleached by singlet oxygen to its corresponding endoperoxide. The reaction was monitored spectrophotometrically by recording the decrease in optical density at 414 nm. The bleaching rate of DPBF can also be used as a method to compare the yield of singlet oxygen. In the actual measurement of singlet oxygen yield, a certain amount of DPBF ethanol solution and test solution are mixed together in a dark room. A rotor is added to the cuvette, and the laser is irradiated for different times while stirring. The absorption spectra of the mixed solution was tested after different time of irradiation with an ultraviolet spectrophotometer, then the change of the absorption value of DPBF at 414 nm was obtained.

[9] = subcutaneous tumor model, 2 mg/kg tail vein, n = 3
[10] = RSP + light (RSPL), tumor sections, n = 3

Compound: N=C(N)NCCC[C@@H]1NC(=O)[C@H](CCCCNC(=O)CCc2ccc(O[Si]3(Oc4ccc(CCC(=O)O)cc4)n4c5c6ccccc6c4N=C4N=C(N=c6c7ccccc7c(n63)=NC3=NC(=N5)c5ccccc53)c3ccccc34)cc2)NC(=O)[C@@H](Cc2ccc(O)cc2)NC(=O)[C@H](CC(=O)O)NC(=O)CNC1=O (stereo partly shown) [RSP, cRGDyK modified targeting silicon phthalocyanine]
- Fluorescence signal of excised tumor, relative to SC (semiquantitative) (4T1 tumor; organs and tumors dissected 24 h after injection, 2 mg/kg, n = 3): four folds higher than that of SC
- Fluorescence intensity in orthotopic mouse tumors, folds of control (4T1 tumor; orthotopic mouse tumors, as worded in the introduction): 4 folds
- Onset of tumor accumulation after injection (4T1 tumor; [9]): ≤ 0.5 h
- Time of peak tumor fluorescence intensity after injection (4T1 tumor; [9]): 6 h
- Fluorescence intensity of tumor site in vivo, folds of SC (4T1 tumor; subcutaneous tumor model, 2 mg/kg, 24 h after injection, n = 3): 2.5 folds
- Tumor volume without light versus PBS and Light groups (4T1 tumor model; 2 mg/kg i.v., n = 5): no significant difference
- Apoptosis in tumor tissue (TUNEL) relative to SCL group (4T1 tumor model; [10]): twice that of SCL group
- Ki67 proliferation signal as % of PBS control group (4T1 tumor model; [10]): 10%
- Ki67 proliferation signal as fraction of SCL group (4T1 tumor model; [10]): 1/4
- H&E pathology of heart, liver, spleen, lung and kidney ([1]; after treatment, RSP injection and laser irradiation): no obvious pathological phenomena
- Mouse body weight change [1]: no significant changes
- Dark toxicity: cell viability without light (4T1 cells [2]): did no significantly decreased
- Killing effect upon exposure to light compared with SC (4T1 cells [2]; λ > 610 nm, 48 J/cm^2, 0 to 2 μM): lower killing effect
- Absorbance at maximum absorption wavelength remaining after irradiation (photostability) [3]: about 80%
- Increase of apoptotic rate compared with SC (4T1 cells [4]): 9.73%
- plasma half-life (t1/2α): 45 min
- Elimination half-time (t1/2β) ([5]; healthy male Balb/c mice, 2 mg/kg tail vein, plasma fluorescence (FOBI)): 463.02 min
- Fluorescence of main organs 120 h after injection ([5]; mice, 2 mg/kg intravenous, 120 h, n = 3): no obvious fluorescent signal can be detected
- Fraction metabolized in 48 h ([5]; mice, 2 mg/kg intravenous, fluorescence of main organs, n = 3): more than 90%
- Solubility in aqueous solutions with Cremophor EL ([6]; aqueous solutions with 1 % Cremophor EL (CEL)): good solubility
- Aggregation state from absorption spectra ([6]; physiological saline containing 1% CEL and DMEM medium containing 0.05% CEL, compared with DMF): remained monomer
- Solubility in pure water ([6]; pure water): limited solubility
- Lysosomal colocalization index (Pearson co-localization coefficient) (4T1 cells [7]): 0.78
- Decrease of singlet oxygen yield relative to SC [8]: 10%
- Slope of DPBF bleaching (singlet oxygen yield) [8]: 0.06481

- Slope of DPBF bleaching (singlet oxygen yield) [8]: 0.07165
Compound: 2[4-(3-carboxypropyl)phenoxy]silicon phthalocyanine [SC]
- Tumor volume without light versus PBS and Light groups (4T1 tumor model; 2 mg/kg i.v., n = 5): no significant difference
- Inhibition of tumor cell proliferation with light, in words (4T1 tumor model; SC + light, 2 mg/kg i.v., 671 nm laser 36 J/cm^2, tumor weight, n = 5): not significantly inhibited
- Mouse body weight change [1]: no significant changes
- Dark toxicity: cell viability without light (4T1 cells [2]): did no significantly decreased
- Lysosomal colocalization index (Pearson co-localization coefficient) (4T1 cells [7]): 0.38
